Data taken from US20040053950A1, “Antimalarial activities and therapeutic properties of febrifugine analogues” (priority 2002, published 2004).
In brackets after ≈: the same amount, converted by molar mass. Where two headings read alike, the source gives them in different places.

How the values were obtained:
[1] = tested on: P. falciparum chloroquine-resistant W2-strain; assay: In vitro drug susceptibility assay ([3H]-hypoxanthine incorporation), W2 strain; type: cell-based; conditions: Plasmodium falciparum
Protocol: (§1) Potential resistance to halofuginone derivatives of P. falciparum isolates were tested. Isolates of P. falciparum stored in liquid nitrogen are thawed and cultivated in RPMI 1640 media with 6% human erythrocytes supplemented with 10% of human serum. The parasite cultures are maintained in an atmosphere of 5% CO2, 5% O2 and 90% N2 at 37° C. for the assay. The semi-automated micro-dilution technique of Desjardins is used to assess the sensitivity of the parasites to febrifugine and halofuginone derivatives. The incorporation of [3H]-hypoxanthine into the parasites is measured as a function of compound concentration to determine EC50 values.

[2] = tested on: P. falciparum chloroquine-sensitive D6-strain; assay: In vitro drug susceptibility assay ([3H]-hypoxanthine incorporation), D6 strain; type: cell-based; conditions: Plasmodium falciparum
Protocol: as §1

[3] = tested on: Macrophage cells (J774); assay: In vitro drug toxicity assay, macrophage cells; type: cell-based; conditions: Mus musculus
[4] = tested on: Neuronal cells (NG108); assay: In vitro drug toxicity assay, neuronal cells; type: cell-based; conditions: NG-108
[5] = tested on: Plasmodium berghei; assay: Modified Thompson test in P. berghei-infected mice; type: in vivo; conditions: for parasitemia of the infected mice: 10 mg/kg once/day for three days
Protocol: An active animal use protocol mouse models are used to test the above compounds to determine antimalarial activity by using modified Thompson Test. In this test, IRC mice are inoculated intraperitoneally with P. berghei-infected erythrocytes from donor mice that are anesthetized and exsanguinated via cardiac puncture to collect infected blood. The pooled blood is then diluted with normal mouse serum to a concentration of 1×10^6 P. berghei erythrocytes per inoculum (0.1 ml). The groups of testing and control mice are inoculated with the infected blood on day 0 and then treated with various dosages of halofuginone or the derivatives in aqueous-based vehicles on day 3 through the day required. The drug is administered orally (PO), subcutaneously (SC), intramuscularly (IM), and/or intraperitoneally (IP) up to three times a day, based on the requirements. Blood films and body weights are taken on the third and sixth days post-infection, then at weekly intervals through day 60. Films are Giemsa-stained, examined using light microscopy for the determination of parasitemia. All mice with negative smears at 60 days are considered cured. The data from the in vivo testing verifies the antimalarial efficacy of febrifugine, halofuginone and the halofuginone derivatives in mice and provides new properties of halofuginone and halofuginone derivatives against malarial parasites in vivo.
The modified Thompson test was conducted in eleven groups of mice with eight mice per group. The tested mice were inoculated with P. Berghei on day zero and treated with febrifugines on days three with one oral or subcutaneous treatment per day for three days. […] The parasitemia of the infected mice was reduced to less than 3% with oral administration of 10 mg/kg febrifugines one/day for three days, while mice with the subcutaneous treatment had 30% of parasitemia at the same does as shown in FIGS. 3(a) through 3(d).
Eighty-eight ICR mice were inoculated with P. berghei, and separated into nine groups. Eight of the infected groups were treated with […] different doses of halofuginone twice a day for eight days. One group was treated with physiological saline as control. […] Two mice were cured at the doses of 0.25 and 0.5 mg/kg and survived 60 days after the treatment. […] The parasites were all cleared at the does of 1 mg/kg on day six.

[6] = tested on: malarial parasites; assay: In vitro antimalarial activity, parasites in culture (strain not stated); type: cell-based
Protocol: as §1

[7] = target: T1, PfMRK (Plasmodium falciparum, UniProt P90584); assay: Kinase assay, recombinant plasmodial cyclin-dependent kinase; type: biochemical
T1 sequence (P90584 1-324): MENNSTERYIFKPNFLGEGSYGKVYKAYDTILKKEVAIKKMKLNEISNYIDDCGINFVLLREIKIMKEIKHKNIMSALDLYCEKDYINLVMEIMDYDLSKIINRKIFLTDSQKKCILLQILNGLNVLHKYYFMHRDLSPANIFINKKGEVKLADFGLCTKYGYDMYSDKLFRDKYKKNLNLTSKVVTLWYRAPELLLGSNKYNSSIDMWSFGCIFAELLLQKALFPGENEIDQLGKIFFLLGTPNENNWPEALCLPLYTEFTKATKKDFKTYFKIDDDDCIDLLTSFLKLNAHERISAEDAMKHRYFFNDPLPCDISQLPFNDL
From the text: Halofuginone is a known to be a specific collagen gene transcription inhibitor. However, inhibition to other target enzymes by febrifugine, halofuginone and halofuginone derivatives in malarial parasites remain unknown. Quinazoline analogues (the family to which these compounds belong) are known to target dihydrofolate reductase, mammalian EGFR kinase, the stress-activated protein kinase and cyclin dependent kinase. A series of enzymatic assays are used to detect whether the derivatives have inhibition against these enzymes. DHFR assay is conducted using a well-characterized spectrophotometric method. Kinase assays are conducted using radioisotope-labeling technique. The responses of the recombinant kinases to the derivatives are measured in a scintillation b-counter and illustrated using SDS-page gel and PhosphoImager. These tests provide information on the compounds' abilities to interfere with the functions of these enzymes and alter the parasite physiological pathways on a molecular basis.

[8] = tested on: Plasmodium lophurae; conditions: duck models, purified febrifugine; cited from earlier work
[9] = Toxic effects in mice (observation and necropsy analysis); type: in vivo; conditions: for diarrhea / gastrointestinal toxic effects: mice
[10] = Table 4, W2, read-out: IC50 P. falciparum (W2)
[11] = Table 4, D6, read-out: IC50 P. falciparum (D6)
[12] = Table 1, W2 strain, read-out: IC50 against P. falciparum W2 strain
[13] = Table 1, D6 strain, read-out: IC50 against P. falciparum D6 strain
[14] = recombinant kinase, dash = no inhibition, read-out: PFMRK (IC50:μM)

Molecule	IC50 [1, 10]	IC50 [2, 11]	IC50 ([3]; Table 4, J774)	IC50 ([4]; Table 4, NG108)	IC50 [1, 12]	IC50 [2, 13]	IC50 ([3]; Table 2, J774)	IC50 ([4]; Table 2, NG108)	further results
O=C(CC1NCCCC1O)Cn1cnc2cc(Br)c(Cl)cc2c1=O (stereo not shown) [Halofuginone]	0.00015 µg/mL (≈ 0.000362 µM)	0.00012 µg/mL (≈ 0.000289 µM)	0.132 µg/mL (≈ 0.319 µM)	0.177 µg/mL (≈ 0.427 µM)	–	–	–	–	lethal toxicity in infected mice ([5]; dose higher than 1 mg/kg twice a day): killed the tested mice before the parasites; mouse survival time ([5]; doses of 0.125, 0.25 and 0.5 mg/kg twice a day for eight days, ICR mice): extended the mouse survival time; parasitemia of the infected mice on day six ([5]; doses of 0.25 and 0.5 mg/kg twice a day): below 0.5%; mice cured (survived 60 days after the treatment) ([5]; doses of 0.25 and 0.5 mg/kg twice a day for eight days): Two; rank of in vitro potency against malarial parasites among febrifugine derivatives [6]: the most potent analog
CCOC1CCCN[C@@H]1CC(=O)Cn1cnc2cc(Br)c(Cl)cc2c1=O (stereo partly shown) [WR221232]	0.0115 µg/mL (≈ 0.0261 µM)	0.00945 µg/mL (≈ 0.0213 µM)	0.613 µg/mL (≈ 1.38 µM)	8 µg/mL (≈ 18.1 µM)	0.0172 µg/mL (≈ 0.0388 µM)	0.0111 µg/mL (≈ 0.0251 µM)	0.287 µg/mL (≈ 0.647 µM)	5.99 µg/mL (≈ 13.5 µM)	IC50 [7]: ~113 µM
O=C(C[C@H]1NCCCC1O)Cn1cnc2cccc(Cl)c2c1=O (stereo partly shown) [WR139672]	0.00146 µg/mL (≈ 0.00435 µM)	0.00175 µg/mL (≈ 0.00521 µM)	0.392 µg/mL (≈ 1.17 µM)	1.16 µg/mL (≈ 3.45 µM)	0.00163 µg/mL (≈ 0.00484 µM)	0.00123 µg/mL (≈ 0.00366 µM)	0.069 µg/mL (≈ 0.205 µM)	1.31 µg/mL (≈ 3.91 µM)	–
O=C(C[C@H]1NCCCC1O)Cn1cnc2ccccc2c1=O (stereo partly drawn) [Febrifugine, (2′S,3′R)-3-[3-(3-hydroxy-2-piperidyl)acetonyl]-4(3H)quinazolinone]	–	–	0.081 µg/mL (≈ 0.269 µM)	0.0635 µg/mL (≈ 0.211 µM)	–	–	–	–	IC50 ([1]; W2, read-out: IC50 P. falciparum (W2)): 0.00053 µg/mL (≈ 0.00176 µM); IC50 ([2]; D6, read-out: IC50 P. falciparum (D6)): 0.00034 µg/mL (≈ 0.00113 µM); in vitro antimalarial activity relative to chloroquine and artemisinin [6]: ten times stronger than chloroquine and artemisinin; antimalarial activity relative to quinine [8]: 100 times as active as quinine
O=C(C[C@H]1CCCCN1C(=O)c1ccccc1)Cn1cnc2ccccc2c1=O [WR059424]	0.284 µg/mL (≈ 0.728 µM)	0.291 µg/mL (≈ 0.748 µM)	3.01 µg/mL (≈ 7.73 µM)	36.8 µg/mL (≈ 94.5 µM)	–	–	–	–	–
(2′S,3′R)-3-[3-(3-hydroxy-2-piperidyl)acetonyl]-4(3H)quinazolinone [Febrifugine]	–	–	–	–	–	–	–	–	efficacy of oral versus subcutaneous treatment ([5]; one treatment per day for three days, mice): more efficacious; parasitemia of the infected mice ([5]; oral administration, mice): less than 3%; parasitemia of the infected mice ([5]; subcutaneous treatment, mice): 30%; toxic effects (nausea and vomiting) in mice ([9]; antimalarial dosages): do not appear to have such toxic effects; diarrhea ([9]; effective treatment doses): did not induce diarrhea; gastrointestinal toxic effects ([9]; oral treatment, toxic doses): severe gastrointestinal lesions and hemorrhage; gastrointestinal toxic effects ([9]; subcutaneous treatment, toxic doses): did not induce GI tract injury; vomiting ([9]; tested mice): No vomiting has been observed; diarrhea ([9]; toxic doses): caused diarrhea; necropsy findings ([9]; toxic doses, mouse killed by drug): pale liver and intestine lesions and hemorrhage
O=C(C[C@H]1NCCCC1O)Cn1cnc2cc3c(cc2c1=O)OCO3 (stereo partly shown) [WR092103]	0.00293 µg/mL (≈ 0.00848 µM)	0.00238 µg/mL (≈ 0.00689 µM)	3.61 µg/mL (≈ 10.4 µM)	6.86 µg/mL (≈ 19.9 µM)	–	–	–	–	–
C=CCOC(=O)N1CCCC(OCC)[C@H]1CC(=O)Cn1cnc2ccccc2c1=O (stereo partly shown) [WR088442]	0.245 µg/mL (≈ 0.593 µM)	0.193 µg/mL (≈ 0.466 µM)	7.09 µg/mL (≈ 17.1 µM)	35.1 µg/mL (≈ 84.8 µM)	0.288 µg/mL (≈ 0.696 µM)	0.203 µg/mL (≈ 0.491 µM)	9.1 µg/mL (≈ 22 µM)	21.5 µg/mL (≈ 52 µM)	IC50 [7, 14]: ~25 µM
C=CCOC(=O)N1CCCC(OC)[C@H]1CC(=O)Cn1cnc2cc3c(cc2c1=O)OCO3 (stereo partly shown) [WR089904]	0.129 µg/mL (≈ 0.292 µM)	0.0897 µg/mL (≈ 0.202 µM)	1.08 µg/mL (≈ 2.43 µM)	53.3 µg/mL (≈ 120 µM)	0.129 µg/mL (≈ 0.292 µM)	0.0897 µg/mL (≈ 0.202 µM)	29.2 µg/mL (≈ 65.7 µM)	63 µg/mL (≈ 142 µM)	–
O=C(C[C@@H]1CCCCN1)Cn1cnc2ccccc2c1=O [WR059421]	0.0237 µg/mL (≈ 0.083 µM)	0.0174 µg/mL (≈ 0.0611 µM)	0.492 µg/mL (≈ 1.72 µM)	8.93 µg/mL (≈ 31.3 µM)	0.026 µg/mL (≈ 0.0912 µM)	0.0171 µg/mL (≈ 0.06 µM)	0.236 µg/mL (≈ 0.827 µM)	5.38 µg/mL (≈ 18.9 µM)	IC50 [7, 14]: ~27 µM
O=C(C[C@H]1NCCCC1O)Cn1cnc2c(Cl)c(Cl)c(Cl)cc2c1=O (stereo partly shown) [WR222048]	0.00098 µg/mL (≈ 0.00242 µM)	0.00082 µg/mL (≈ 0.00203 µM)	0.499 µg/mL (≈ 1.23 µM)	0.879 µg/mL (≈ 2.17 µM)	0.00129 µg/mL (≈ 0.00319 µM)	0.000962 µg/mL (≈ 0.00238 µM)	0.11 µg/mL (≈ 0.272 µM)	1.1 µg/mL (≈ 2.71 µM)	–
COC1CCCN[C@@H]1CC(=O)Cn1cnc2cc3c(cc2c1=O)OCO3 (stereo partly shown) [WR090212]	0.0234 µg/mL (≈ 0.0651 µM)	0.0189 µg/mL (≈ 0.0527 µM)	2.97 µg/mL (≈ 8.27 µM)	24.8 µg/mL (≈ 69.1 µM)	0.0256 µg/mL (≈ 0.0713 µM)	0.0181 µg/mL (≈ 0.0504 µM)	3.54 µg/mL (≈ 9.85 µM)	26 µg/mL (≈ 72.3 µM)	–
COC1CCCN[C@@H]1CC(=O)Cn1cnc2ccc3c(c2c1=O)OCO3 (stereo partly shown) [WR140085]	0.0151 µg/mL (≈ 0.0419 µM)	0.0129 µg/mL (≈ 0.036 µM)	0.425 µg/mL (≈ 1.18 µM)	15.5 µg/mL (≈ 43.1 µM)	0.0141 µg/mL (≈ 0.0391 µM)	0.0105 µg/mL (≈ 0.0291 µM)	3.29 µg/mL (≈ 9.14 µM)	10.8 µg/mL (≈ 30.1 µM)	–
